Legend:
barnyardgrass [1] = assay: Test C flooded paddy test; format: in vivo, Echinochloa crus-galli; settings: Flood
Method in brief: (§1)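 In-water treatment: compound dosed into 3 cm flood over soil, water level unchanged throughout. Controls run alongside; visual assessment at day 13–15.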

barnyardgrass [2] = assay: Test A preemergence; format: in vivo, Echinochloa crus-galli; settings: for Barnyardgrass plant response rating (0 to 100 scale, 0 is no effect, 100 is complete control): visual injury approx. 10 days after treatment
Method in brief: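 Greenhouse test in loam soil/sand blend; compounds formulated in non-phytotoxic solvent with surfactant, applied as preemergence directed soil spray or postemergence to plants 2–10 cm tall at one- to two-leaf stage. Injury rated visually versus untreated controls after approximately 10 days on a 0 (no effect) to 100 (complete control) scale.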

wheat = assay: Test C preemergence; format: in vivo, Triticum aestivum; settings: for Plant response rating (scale of 0 to 100), Wheat: Preemergence; for Wheat plant response rating / Plant response rating, Wheat: preemergence; for Plant response rating, Wheat: scale 0 to 100, 0 = no effect, 100 = complete control
Method in brief: (§2)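 Herbicidal effect is expressed as percent visual control (0–100) judged against untreated plants 13 to 15 days after treatment in the greenhouse. Preemergence pots contained seeds in a soil–sand blend; postemergence plants, 2–18 cm tall, grew in peat-based planting medium.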

sedge, umbrella = assay: Test C flooded paddy test; format: in vivo, Cyperus difformis; settings: Flood
Method in brief: as §1

rice = assay: Test C flooded paddy test; format: in vivo, Oryza sativa; settings: Flood
Method in brief: as §1

nutsedge, yellow = assay: Test C postemergence; format: in vivo, Cyperus esculentus; settings: for Nutsedge, Yellow plant response rating: scale 0 to 100; for Plant response rating (scale of 0 to 100 where 0 is no effect and 100 is complete control), Nutsedge, Yellow: visually evaluated after 13 to 15 days
Method in brief: as §2

ducksalad = assay: Test C flooded paddy test; format: in vivo, Heteranthera limosa; settings: Flood
Method in brief: as §1

[3] = 31 g ai/ha, scale 0 to 100 (0 no effect, 100 complete control)
[4] = 62 g ai/ha, scale 0 to 100 (0 no effect, 100 complete control)
[5] = 125 g ai/ha, scale 0 to 100, 0 is no effect, 100 is complete control
[6] = postemergence, 250 g ai/ha, scale 0 to 100 (0 no effect, 100 complete control)
[7] = postemergence, 125 g ai/ha, scale 0 to 100, 0 no effect, 100 complete control
[8] = preemergence, 125 g ai/ha, visual injury, 0 to 100 scale, approx. 10 days
[9] = preemergence, 500 g ai/ha, visual injury after approx. 10 days, 0 to 100 scale (0 no effect, 100 complete control)
[10] = 31 g ai/ha, visual rating, scale 0 to 100 (0 no effect, 100 complete control), 13 to 15 days
[11] = 62 g ai/ha, scale 0 to 100 (0 no effect, 100 complete control), 13 to 15 days
[12] = 125 g ai/ha, scale 0 to 100 (0 no effect, 100 complete control)
[13] = 250 g ai/ha, scale 0 to 100, 0 is no effect, 100 is complete control

SMILES | Plant response rating, Barnyardgrass (barnyardgrass [1]; [3]) | Plant response rating, Barnyardgrass (barnyardgrass [1]; [4]) | Plant response rating, Barnyardgrass (barnyardgrass [1]; 125 g ai/ha, scale 0 to 100) | Plant response rating, Barnyardgrass (barnyardgrass [1]; 250 g ai/ha, scale 0 to 100) | Plant response rating, Sedge, Umbrella (sedge, umbrella; [3]) | Plant response rating, Sedge, Umbrella (sedge, umbrella; [4]) | Plant response rating, Sedge, Umbrella (sedge, umbrella; 250 g ai/ha, scale 0 to 100) | Plant response rating, Rice (rice; [3]) | Plant response rating, Rice (rice; [4]) | Plant response rating, Rice (rice; 250 g ai/ha, scale 0 to 100) | Nutsedge, Yellow plant response rating (nutsedge, yellow; postemergence, 62 g ai/ha) | Plant response rating, Nutsedge, Yellow (nutsedge, yellow; [6]) | Plant response rating, Nutsedge, Yellow (nutsedge, yellow; [7]) | Plant response rating, Ducksalad (ducksalad; [3]) | Plant response rating, Ducksalad (ducksalad; [4]) | Plant response rating, Ducksalad (ducksalad; 250 g ai/ha, scale 0 to 100) | Barnyardgrass plant response rating (barnyardgrass [2]; [9]) | Wheat plant response rating (wheat; [10]) | Wheat plant response rating (wheat; [11]) | Plant response rating (scale of 0 to 100 where 0 is no effect and 100 is complete control), Nutsedge, Yellow (nutsedge, yellow; Postemergence, 31 g ai/ha) | also measured
Cc1cc(C(=O)NCC(F)(F)F)nn1Cc1ccnc(C(F)(F)F)c1 [Compound 74] | 0 | 15 | 15 | 15 | 0 | 0 | 90 | 0 | 15 | 15 | 5 | 15 | 5 | 0 | 0 | 90 |  |  |  |  | Barnyardgrass plant response rating (barnyardgrass [2]; Preemergence, 1000 g ai/ha, 0 to 100 scale, 0 no effect, 100 complete control): 100; Plant response rating (scale of 0 to 100), Wheat (wheat; 250 g ai/ha): 90; Wheat plant response rating (wheat; 31 g ai/ha, scale 0 to 100 (0 no effect, 100 complete control), 13 to 15 days): 0; Plant response rating, Wheat (wheat; 62 g ai/ha, 13 to 15 days): 5; Wheat plant response rating (wheat; [5]): 15; Plant response rating, Sedge, Umbrella (sedge, umbrella; 125 g ai/ha, scale 0 to 100): 0; Plant response rating, Rice (rice; 125 g ai/ha, scale 0 to 100): 15; Nutsedge, Yellow plant response rating (nutsedge, yellow; Postemergence, 31 g ai/ha): 0; Plant response rating, Ducksalad (ducksalad; 125 g ai/ha, scale 0 to 100): 0
CCCNC(=O)c1cc(CC)n(Cc2nc(C(F)(F)F)nn2C)n1 [Compound 109] | 0 | 0 | 35 | 40 | 30 | 60 | 85 | 0 | 0 | 35 | 5 | 5 | 5 | 30 | 40 | 85 | 100 | 0 | 15 | 0 | Barnyardgrass plant response rating (barnyardgrass [2]; [8]): 100; Plant response rating (scale of 0 to 100), Wheat (wheat; 250 g ai/ha): 85; Wheat plant response rating (wheat; [5]): 85; Plant response rating, Sedge, Umbrella (sedge, umbrella; 125 g ai/ha, scale 0 to 100): 75; Plant response rating, Rice (rice; 125 g ai/ha, scale 0 to 100): 20; Plant response rating, Ducksalad (ducksalad; 125 g ai/ha, scale 0 to 100): 75
CCCc1cc(C(=O)NCC(F)(F)F)nn1Cc1ccnc(OC(F)F)c1 [Compound 127] | 0 | 0 | 15 | 30 | 50 | 60 | 95 | 0 | 0 | 0 | 5 | 25 | 15 | 30 | 40 | 80 | 90 | 5 | 40 | 5 | Barnyardgrass plant response rating (barnyardgrass [2]; [8]): 90; Plant response rating (scale of 0 to 100), Wheat (wheat; 250 g ai/ha): 85; Plant response rating, Wheat (wheat; 125 g ai/ha, 13 to 15 days): 85; Plant response rating, Sedge, Umbrella (sedge, umbrella; 125 g ai/ha, scale 0 to 100): 70; Plant response rating, Rice (rice; 125 g ai/ha, scale 0 to 100): 0; Plant response rating, Ducksalad (ducksalad; 125 g ai/ha, scale 0 to 100): 60
CCOc1cc(C(=O)NCC(F)(F)F)nn1Cc1ccnc(OC(F)F)c1 [Compound 128] | 0 | 0 | 35 |  | 30 | 50 | 85 | 0 | 0 | 0 | 5 | 25 | 10 | 40 | 75 | 90 | 100 | 20 | 30 | 5 | Barnyardgrass plant response rating (barnyardgrass [2]; [8]): 100; Plant response rating (scale of 0 to 100), Wheat (wheat; 250 g ai/ha): 85; Plant response rating, Wheat (wheat; 125 g ai/ha, 13 to 15 days): 70; Plant response rating, Sedge, Umbrella (sedge, umbrella; 125 g ai/ha, scale 0 to 100): 75; Plant response rating, Rice (rice; 125 g ai/ha, scale 0 to 100): 0; Plant response rating, Ducksalad (ducksalad; 125 g ai/ha, scale 0 to 100): 80
CCCNC(=O)c1cc(CCF)n(Cc2ccnc(C(F)(F)F)c2)n1 [Compound 177] | 0 | 0 |  | 0 | 50 | 75 | 90 | 0 | 0 | 0 | 5 | 15 | 5 | 0 | 50 | 85 | 100 | 10 | 10 | 10 | Plant response rating, Barnyardgrass (barnyardgrass [1]; [12]): 0; Barnyardgrass plant response rating (0 to 100 scale, 0 is no effect, 100 is complete control) (barnyardgrass [2]; preemergence, 125 g ai/ha): 100; Plant response rating, Wheat (wheat; 125 g ai/ha, 13 to 15 days): 50; Wheat plant response rating (wheat; [13]): 90; Plant response rating, Sedge, Umbrella (sedge, umbrella; [12]): 85; Plant response rating, Rice (rice; [12]): 0; Plant response rating, Ducksalad (ducksalad; [12]): 75
CCCc1cc(C(=O)NC2CC2)nn1Cc1ccnc(OC(F)F)c1 [Compound 205] |  | 0 |  | 35 |  | 75 | 100 |  | 0 | 0 | 5 | 15 | 15 |  | 75 | 100 | 100 | 5 | 15 | 5 | Plant response rating, Barnyardgrass (barnyardgrass [1]; [12]): 25; Plant response rating, Barnyardgrass (barnyardgrass [1]; 500 g ai/ha, scale 0 to 100): 60; Barnyardgrass plant response rating (0 to 100 scale, 0 is no effect, 100 is complete control) (barnyardgrass [2]; preemergence, 125 g ai/ha): 90; Plant response rating, Wheat (wheat; 125 g ai/ha, 13 to 15 days): 85; Wheat plant response rating (wheat; [13]): 95; Plant response rating, Sedge, Umbrella (sedge, umbrella; [12]): 95; Plant response rating, Sedge, Umbrella (sedge, umbrella; 500 g ai/ha, scale 0 to 100): 100; Plant response rating, Rice (rice; [12]): 0; Plant response rating, Rice (rice; 500 g ai/ha, scale 0 to 100): 35; Plant response rating, Ducksalad (ducksalad; [12]): 90; Plant response rating, Ducksalad (ducksalad; 500 g ai/ha, scale 0 to 100): 100

Source: US20150105252A1, “SUBSTITUTED PYRAZOLES AS HERBICIDES” (E I DU PONT DE NEMOURS AND COMPANY, priority 2013, published 2015)
